Reference: the NIST ThermoML archive (doi:10.1021/je030236t)

Columns and labels:
[1] = molar enthalpy of vaporization or sublimation; conditions: 298.15 K; Liquid
[2] = Liquid
[3] = Molar enthalpy of transition or fusion; conditions: Crystal; DSC

CCCCCCCCCCCCCCCCCCCCCCCCCCCCCCCCCCCCC [heptatriacontane]
Conditions | molar enthalpy [kcal/mol]
[1] | 44.8

[2]
Conditions | vapor or sublimation pressure [kPa]
298.15 K | 1.49e-14
310 K | 2.63e-13
320 K | 2.43e-12
330 K | 1.89e-11
340 K | 1.26e-10
350 K | 7.35e-10
360 K | 3.77e-09
370 K | 1.72e-08
380 K | 7.09e-08
390 K | 2.65e-07
400 K | 9.09e-07
410 K | 2.87e-06
420 K | 8.43e-06
430 K | 2.31e-05
440 K | 5.96e-05
450 K | 0.000145
460 K | 0.000335
470 K | 0.000735
480 K | 0.00154
490 K | 0.0031
500 K | 0.006
510 K | 0.0112
520 K | 0.0202
530 K | 0.0353
540 K | 0.0598
550 K | 0.0987
560 K | 0.159
570 K | 0.25
580 K | 0.383

CCCCCCCCCCCCCCCCCCCCCCCCCCCCCCC [hentriacontane]
Conditions | molar enthalpy [kcal/mol]
[1] | 37.6

[2]
Conditions | vapor or sublimation pressure [kPa]
298.15 K | 1.11e-11
310 K | 1.23e-10
320 K | 7.88e-10
330 K | 4.39e-09
340 K | 2.15e-08
350 K | 9.39e-08
360 K | 3.69e-07
370 K | 1.32e-06
380 K | 4.3e-06
390 K | 1.3e-05
400 K | 3.64e-05
410 K | 9.56e-05
420 K | 0.000236
430 K | 0.00055
440 K | 0.00122
450 K | 0.00256
460 K | 0.00517
470 K | 0.01
480 K | 0.0187
490 K | 0.0336
500 K | 0.0585
510 K | 0.0989
520 K | 0.163
530 K | 0.26
540 K | 0.406
550 K | 0.619
560 K | 0.925
570 K | 1.35
580 K | 1.95

CCCCCCCCCCCCCCCCCCCCCCCCCCCCCCCCCC [tetratriacontane]
Conditions | molar enthalpy [kcal/mol]
[1] | 41.3

[2]
Conditions | vapor or sublimation pressure [kPa]
298.15 K | 3.83e-13
310 K | 5.39e-12
320 K | 4.16e-11
330 K | 2.75e-10
340 K | 1.58e-09
350 K | 7.97e-09
360 K | 3.59e-08
370 K | 1.45e-07
380 K | 5.34e-07
390 K | 1.8e-06
400 K | 5.58e-06
410 K | 1.61e-05
420 K | 4.34e-05
430 K | 0.00011
440 K | 0.000263
450 K | 0.000596
460 K | 0.00129
470 K | 0.00266
480 K | 0.00527
490 K | 0.01
500 K | 0.0184
510 K | 0.0328
520 K | 0.0564
530 K | 0.0944
540 K | 0.154
550 K | 0.244
560 K | 0.379
570 K | 0.575
580 K | 0.856

CCCCCCCCCCCCCCCCCCCCCCCCCCCCCCCCCCC [pentatriacontane]
Conditions | molar enthalpy [kcal/mol]
[1] | 42.5

[2]
Conditions | vapor or sublimation pressure [kPa]
298.15 K | 1.22e-13
310 K | 1.86e-12
320 K | 1.53e-11
330 K | 1.07e-10
340 K | 6.52e-10
350 K | 3.46e-09
360 K | 1.63e-08
370 K | 6.91e-08
380 K | 2.64e-07
390 K | 9.25e-07
400 K | 2.97e-06
410 K | 8.87e-06
420 K | 2.46e-05
430 K | 6.42e-05
440 K | 0.000158
450 K | 0.000367
460 K | 0.000812
470 K | 0.00171
480 K | 0.00346
490 K | 0.00673
500 K | 0.0126
510 K | 0.0228
520 K | 0.0399
530 K | 0.0678
540 K | 0.112
550 K | 0.181
560 K | 0.284
570 K | 0.436
580 K | 0.657

CCCCCCCCCCCCCCCCCCCCCCCCCCCCCCCCCCCC [hexatriacontane]
Conditions | molar enthalpy [kcal/mol]
[1] | 43.7

[2]
Conditions | vapor or sublimation pressure [kPa]
298.15 K | 4.51e-14
310 K | 7.39e-13
320 K | 6.41e-12
330 K | 4.72e-11
340 K | 3e-10
350 K | 1.66e-09
360 K | 8.16e-09
370 K | 3.58e-08
380 K | 1.42e-07
390 K | 5.12e-07
400 K | 1.7e-06
410 K | 5.2e-06
420 K | 1.48e-05
430 K | 3.96e-05
440 K | 9.96e-05
450 K | 0.000237
460 K | 0.000534
470 K | 0.00115
480 K | 0.00236
490 K | 0.00467
500 K | 0.00888
510 K | 0.0163
520 K | 0.0289
530 K | 0.0498
540 K | 0.0834
550 K | 0.136
560 K | 0.216
570 K | 0.336
580 K | 0.51

CCCCCCCCCCCCCCCCCCCCCCCCCCCCCCCCC [tritriacontane]
Conditions | molar enthalpy [kcal/mol]
[1] | 40.1

[2]
Conditions | vapor or sublimation pressure [kPa]
298.15 K | 1.19e-12
310 K | 1.54e-11
320 K | 1.11e-10
330 K | 6.95e-10
340 K | 3.79e-09
350 K | 1.82e-08
360 K | 7.83e-08
370 K | 3.04e-07
380 K | 1.07e-06
390 K | 3.49e-06
400 K | 1.05e-05
410 K | 2.92e-05
420 K | 7.65e-05
430 K | 0.000189
440 K | 0.000439
450 K | 0.000972
460 K | 0.00205
470 K | 0.00415
480 K | 0.00805
490 K | 0.015
500 K | 0.0272
510 K | 0.0474
520 K | 0.0804
530 K | 0.133
540 K | 0.213
550 K | 0.334
560 K | 0.511
570 K | 0.767
580 K | 1.13

CCCCCCCCCCCCCCCCCCCCCCCCCCCCCCCCCCCCCC [octatriacontane]
Conditions | molar enthalpy [kcal/mol]
[1] | 46

[2]
Conditions | vapor or sublimation pressure [kPa]
298.15 K | 5.13e-15
310 K | 9.81e-14
320 K | 9.59e-13
330 K | 7.88e-12
340 K | 5.54e-11
350 K | 3.38e-10
360 K | 1.81e-09
370 K | 8.6e-09
380 K | 3.67e-08
390 K | 1.42e-07
400 K | 5.03e-07
410 K | 1.64e-06
420 K | 4.95e-06
430 K | 1.39e-05
440 K | 3.68e-05
450 K | 9.16e-05
460 K | 0.000216
470 K | 0.000484
480 K | 0.00104
490 K | 0.00212
500 K | 0.00417
510 K | 0.00791
520 K | 0.0145
530 K | 0.0257
540 K | 0.0441
550 K | 0.0738
560 K | 0.12
570 K | 0.191
580 K | 0.296

c1ccc(-c2cc(-c3ccccc3)cc(-c3ccccc3)c2)cc1 [1,3,5-triphenylbenzene]
Conditions | Molar enthalpy of transition or fusion [kcal/mol]
[3] | 7.43

CCCCCCCCCCCCCCCCCCCCCCCCCCCCCCCC [dotriacontane]
Conditions | molar enthalpy [kcal/mol]
[1] | 38.8

[2]
Conditions | vapor or sublimation pressure [kPa]
298.15 K | 3.62e-12
310 K | 4.33e-11
320 K | 2.95e-10
330 K | 1.74e-09
340 K | 8.99e-09
350 K | 4.12e-08
360 K | 1.69e-07
370 K | 6.31e-07
380 K | 2.14e-06
390 K | 6.71e-06
400 K | 1.95e-05
410 K | 5.27e-05
420 K | 0.000134
430 K | 0.000321
440 K | 0.000729
450 K | 0.00158
460 K | 0.00325
470 K | 0.00643
480 K | 0.0122
490 K | 0.0224
500 K | 0.0398
510 K | 0.0684
520 K | 0.114
530 K | 0.185
540 K | 0.294
550 K | 0.454
560 K | 0.687
570 K | 1.02
580 K | 1.48
